The compounds below were run against His-tagged recombinant human Gal-3 (hGal-3) (Homo sapiens, UniProt P17931) (assay: Gal-3 HTRF assay (hGal-3 / B-ASF binding inhibition)). Details: Examples 26 to 29 and 66 to 68; HTRF, 15 nM hGal-3, 15 nM B-ASF.
Description: ASSAY BUFFER Composition: 25 mM HEPES, 100 mM NaCl, 0.005% Tween 20, 0.05% BSA prepared in sterile water (all reagents from Sigma).
Positive Control: 100% DMSO (1 μL)+His-tagged hGal-3 (20 μL)+β-ASF (20 μL)+Anti-His Terbium Antibody (5 μL)+Strep d2 Antibody (5 μL).
Negative Control: 100% DMSO (1 μL)+His-tagged hGal-3 (20 μL)+Anti His Terbium Antibody (5 μL)+Strep d2 Aantibody (5 μL).
PROTOCOL: The Gal-3 assays were performed in 384 white Opti plates in three replicates at room temperature with gentle shaking at 250-300 rpm From the original stocks, […] working stock concentrations of His-tagged recombinant human Gal-3 (hGal-3) and that of B-ASF were prepared. From the working stock, 20 μL of hGal-3 (15 nM) and 20 μL B-ASF (15 nM) were added to the plates. In Negative Control, only hGal-3 was added. A concentration range of 50× working stocks were prepared for the compounds in 100% DMSO. Aliquots of 1 μL of the compounds were added to the wells and pre-incubated with 20 μL hGal-3 per well for 30 minutes Then 20 μL B-ASF were added and incubated for another 1 hour. To detect the signal, 5 μL (final conc. of 1.0 nM) terbium labelled Anti-His antibody was added and incubated for 30 min followed by adding 5 μL (final conc. of 20 nM) Streptavidin d2 and incubation for another 1 hour. The assay signal was detected using HTRF screen protocol (Excitation wavelength=340 nm, emission wavelength=615 nm/665 nm) on Envision 2104 Multilabel Reader. Data analysed using Toolset and Curve Master. Results are reported in the experimental section (IC50 in μM).

Chain of His-tagged recombinant human Gal-3 (hGal-3) (P17931 whole entry): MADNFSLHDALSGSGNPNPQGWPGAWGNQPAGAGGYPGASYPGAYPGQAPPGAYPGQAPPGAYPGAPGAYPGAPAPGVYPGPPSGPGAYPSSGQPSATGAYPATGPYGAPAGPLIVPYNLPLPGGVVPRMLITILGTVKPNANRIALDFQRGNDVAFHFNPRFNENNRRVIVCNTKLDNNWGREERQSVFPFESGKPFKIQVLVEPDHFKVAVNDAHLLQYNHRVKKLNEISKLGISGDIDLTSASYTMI

| SMILES | IC50 |
| --- | --- |
| OC[C@H]1O[C@@H](c2nncn2-c2cc(Cl)ccc2C(F)(F)F)[C@H](OCC(F)F)[C@@H](n2cc(-c3ccc(Br)c(F)c3F)nn2)[C@H]1O [Example 29, (2R,3R,4S,5R,6S)-4-(4-(4-bromo-2,3-difluorophenyl)-1H-1,2,3-triazol-1-yl)-6-(4-(5-chloro-2-(trifluoromethyl)phenyl)-4H-1,2,4-triazol-3-yl)-5-(2,2-difluoroethoxy)-2-(hydroxymethyl)tetrahydro-2H-pyran-3-ol] | 11 nM |

Same assay, conditions: table of Examples 5 to 25

| SMILES | IC50 |
| --- | --- |
| Cc1nc([C@@H]2O[C@H](CO)[C@H](O)[C@H](n3cc(-c4ccc(Br)c(F)c4F)nn3)[C@H]2O)n(-c2cc(Cl)ccc2OC(F)(F)F)n1 [Example 10] | 11 nM |
| Cc1nc([C@@H]2O[C@H](CO)[C@H](O)[C@H](n3cc(-c4ccc5ccccc5c4F)nn3)[C@H]2O)n(-c2cc(Cl)ccc2C(F)(F)F)n1 [Example 6] | 62 nM |
| Cc1nc([C@@H]2O[C@H](CO)[C@H](O)[C@H](n3cc(-c4ccc(Br)c(F)c4F)nn3)[C@H]2O)n(-c2cc(Cl)ccc2C2CC2)n1 [Example 23] | 20 nM |
| Cc1nc([C@@H]2O[C@H](CO)[C@H](O)[C@H](n3cc(-c4ccc(Cl)c(Cl)c4F)nn3)[C@H]2O)n(-c2cc(Cl)ccc2C(F)(F)F)n1 [Example 7] | 6 nM |
| Cc1nc([C@@H]2O[C@H](CO)[C@H](O)[C@H](n3cc(-c4ccc(Br)c(F)c4F)nn3)[C@H]2O)n(-c2cc(Cl)ncc2C(F)(F)F)n1 [Example 9] | 12 nM |
| Cc1nc([C@@H]2O[C@H](CO)[C@H](O)[C@H](n3cc(-c4ccc(Cl)c(F)c4F)nn3)[C@H]2O)n(-c2ccc3ncsc3c2)n1 [Example 20] | 9 nM |
| COc1cc(-c2cn([C@H]3[C@@H](O)[C@@H](CO)O[C@@H](c4nc(C)nn4-c4cc(Cl)ccc4C(F)(F)F)[C@@H]3O)nn2)cc2ccccc12 [Example 18] | 1330 nM |

Same assay, conditions: table of Examples 30 to 65

| SMILES | IC50 |
| --- | --- |
| OC[C@H]1O[C@@H](c2nncn2-c2cc(Cl)ccc2C(F)(F)F)[C@H](OCC(F)F)[C@@H](n2cc(-c3ccc(Cl)c(F)c3F)nn2)[C@H]1O [Example 54] | 12 nM |
| OC[C@H]1O[C@@H](c2nncn2-c2cc(Cl)ccc2OC(F)(F)F)[C@H](O)[C@@H](n2cc(-c3ccc(Br)c(F)c3F)nn2)[C@H]1O [Example 38] | 11 nM |
| OC[C@H]1O[C@@H](c2nncn2-c2cc(Cl)ccc2OC(F)(F)F)[C@H](OCC(F)(F)F)[C@@H](n2cc(-c3ccc(Br)c(F)c3F)nn2)[C@H]1O [Example 59] | 57 nM |
| OC[C@H]1O[C@@H](c2nncn2-c2cc(Cl)ccc2OC(F)(F)F)[C@H](O)[C@@H](n2cc(-c3ccc(Cl)c(F)c3F)nn2)[C@H]1O [Example 51] | 14 nM |
| CO[C@@H]1[C@@H](n2cc(-c3ccc(Br)c(F)c3F)nn2)[C@@H](O)[C@@H](CO)O[C@H]1c1nncn1-c1cc(Cl)ccc1C(F)(F)F [Example 35] | 9.3 nM |
| OC[C@H]1O[C@@H](c2nncn2-c2cc(Cl)ccc2C(F)(F)F)[C@H](OCC(F)(F)C(F)F)[C@@H](n2cc(-c3ccc(Br)c(F)c3)nn2)[C@H]1O [Example 64] | 100 nM |
| CO[C@@H]1[C@@H](n2cc(-c3ccc(Br)c(F)c3F)nn2)[C@@H](O)[C@@H](CO)O[C@H]1c1nncn1-c1cc(Cl)ccc1OC(F)(F)F [Example 48] | 14 nM |
| CO[C@@H]1[C@@H](n2cc(-c3cc(F)c(Br)c(F)c3)nn2)[C@@H](O)[C@@H](CO)O[C@H]1c1ncnn1-c1cc(Cl)ccc1C(F)(F)F [Example 31] | 24 nM |
| OC[C@H]1O[C@@H](c2nncn2-c2cc(Cl)ccc2OC(F)(F)F)[C@H](OCC(F)F)[C@@H](n2cc(-c3ccc(Cl)c(F)c3F)nn2)[C@H]1O [Example 53] | 19 nM |
| OC[C@H]1O[C@@H](c2nncn2-c2cc(Cl)ccc2OC(F)(F)F)[C@H](O)[C@@H](n2cc(-c3c(F)c(F)c(Br)c(F)c3F)nn2)[C@H]1O [Example 47] | 14 nM |

Same assay, conditions: table of Examples 69 to 75

| SMILES | IC50 |
| --- | --- |
| OC[C@H]1O[C@@H](c2nncn2-c2ccc3ncsc3c2)[C@H](OCC(F)F)[C@@H](n2cc(-c3ccc(Br)c(F)c3F)nn2)[C@H]1O [Example 70] | 11 nM |
| OC[C@H]1O[C@@H](c2nncn2-c2cc(Cl)cc3cccnc23)[C@H](OCC(F)F)[C@@H](n2cc(-c3cc(F)c(Br)c(F)c3)nn2)[C@H]1O [Example 69] | 130 nM |
| CNCCN(C)C(=O)CO[C@@H]1[C@@H](n2cc(-c3cc(F)c(Cl)c(F)c3)nn2)[C@@H](O)[C@@H](CO)O[C@H]1c1nncn1-c1ccc2nc(C)sc2c1 [Example 73] | 54 nM |

Same assay, conditions: text of Examples 1 to 4; HTRF, 15 nM hGal-3, 15 nM B-ASF

| SMILES | IC50 |
| --- | --- |
| CO[C@@H]1[C@@H](n2cc(-c3ccc(Br)c(F)c3F)nn2)[C@@H](O)[C@@H](CO)O[C@H]1c1nc(C)nn1-c1ccc2ncsc2c1 [Example 2, (2R,3R,4S,5R,6S)-6-(1-(Benzo[d]thiazol-6-yl)-3-methyl-1H-1,2,4-triazol-5-yl)-4-(4-(4-bromo-2,3-difluorophenyl)-1H-1,2,3-triazol-1-yl)-2-(hydroxymethyl)-5-methoxytetrahydro-2H-pyran-3-ol] | 13 nM |
| CNC(=O)CO[C@@H]1[C@@H](n2cc(-c3cc(F)c(Cl)c(F)c3)nn2)[C@@H](O)[C@@H](CO)O[C@H]1c1nc(C)nn1-c1cc(Cl)ccc1C(F)(F)F [Example 4, 2-(((2S,3R,4S,5R,6R)-2-(1-(5-chloro-2-(trifluoromethyl)phenyl)-3-methyl-1H-1,2,4-triazol-5-yl)-4-(4-(4-chloro-3,5-difluorophenyl)-1H-1,2,3-triazol-1-yl)-5-hydroxy-6-(hydroxymethyl)tetrahydro-2H-pyran-3-yl)oxy)-N-methylacetamide] | 23 nM |

Source: US12275719B2, “Small molecule inhibitors of galectin-3” (BRISTOL-MYERS SQUIBB COMPANY, priority 2019, dated 2025)
